The values below come from the NIST ThermoML archive (doi:10.1016/j.jct.2007.02.009).

The nature of series [1]: Molar enthalpy of transition or fusion. Conditions: Crystal; Adiabatic calorimetry.
For series [2] the following is noted: Crystal; Adiabatic calorimetry.

Each structure is given as a SMILES string. Numbers after ± are expanded uncertainties.

For `CC(=O)N(C)C` [N,N-dimethylethanamide], the “Molar enthalpy of transition or fusion” value in series [1] worked out at 2.44 ± 0.0598 kcal/mol. Moreover, the Triple point temperature in series [2] was determined as 254.23 ± 0.18 K.
